Here are results for 5 compounds from PMC7650660, “Potential of Cell-Free Supernatant from Lactobacillus plantarum NIBR97, Including Novel Bacteriocins, as a Natural Alternative to Chemical Disinfectants” (Pharmaceuticals, 2020).

One data set has as its system Salmonella Typhimurium. The format is cell-based. The conditions noted are these: synthetic peptides against S. Typhimurium; Figure S3. As for the experimental part:
L. plantarum NIBR97 was incubated at 37 °C for 24 h in an MRS liquid medium (10 g/L peptone, 8 g/L meat extract, 4 g/L yeast extract, 20 g/L d(+)-glucose, 2 g/L dipotassium hydrogen phosphate, 5 g/L sodium acetate trihydrate, 2 g/L triammonium citrate, 0.2 g/L magnesium sulfate heptahydrate, and 0.05 g/L manganous sulfate tetrahydrate). The cultural broth was centrifuged for 20 min at 2000× g, and the centrifugal supernatant was collected and then sterilized by a 0.22 μm filtration. The sterilized fluid was either applied directly for the examination of antimicrobial activity or fractionated and stored at −80 °C until use. The assessment of antimicrobial activity on a microtiter plate was performed by some modification of the dilution assay of Wiegand et al.. The MIC50 and MIC90 were expressed as total proteins equivalent (μg) per volume (mL) of the sample, and the effect of proteinase K treatment was examined by a previously described procedure.
Figure 3. Antibacterial activity of synthetic Plantaricins identified from the L. plantarum NIBR97
genome. Pln 1, 2, 3, 4 and 5 were synthesized according to the amino acid sequences in Figure 3, and
further examined for their antibacterial activity against a Salmonella enterica serotype, S.
The Y axis in the graphs represents the relative growth of S. Typhimurium. […]

In data set [1] the test system is HEK-293T cells (human host cells). Kind of data set: Cytotoxic effect on host cells (bright-field images) in the lentivirus test. The format is cell-based. Conditions: lentiviruses treated with 5 μg/μL of synthetic peptides. Here is the method:
(A) For fluorescence microscopy, we treated GFP-labeled lentiviruses with the cell-free supernatant for 5 min and 24 h, and then were infected in HEK-293T human host cells. The 1× and 5× correspond to the concentrations treated to the lentiviruses, 79.15 and 395.75 μg total proteins/mL, respectively. The bright-field images (Bright) indicate the HEK-293T cells, and the green signals in the fluorescent images (GFP) represent the GFP-labeled lentiviruses. (B) For scanning electron microscopy, the GFP-labeled lentiviruses were treated without (a) or with the cell-free supernatant (395.75 μg total proteins/mL) (b) for 5 min.
Figure 5 Fluorescence micrographs of HEK-293T cells infected with GFP-labeled lentiviruses treated with synthetic Pln 3 and 5. The lentiviruses were treated without (control) or with the synthetic peptides (1 to 5 μg/μL) Pln 3 (A) and 5 (B) for 5 min or 24 h, and then the HEK-293T human host cells were infected. The bright-field images (Bright) indicate the HEK-293T cells, and the green signals in the fluorescent images (GFP) represent the GFP-labeled lentiviruses.
For the anti-viral test, we co-incubated 2 μL of lentivirus soup (2.8 × 10^6 lentiviruses/μL) with 2 μL of test sample for 5 min and 24 h at 25 °C. After the co-incubation, 2 μL from the total 4 μL of the test sample–lentivirus mixture was infected in HEK-293T cells (1 × 10^4 cells per well).

Values after ≈ are worked out from the molar mass of the structure shown. Peptide text beside a SMILES is read from it.

Turning to `CC[C@H](C)[C@H](NC(=O)CNC(=O)[C@@H](NC(=O)[C@H](CO)NC(=O)CNC(=O)[C@@H](NC(=O)[C@H](CC(C)C)NC(=O)[C@H](CO)NC(=O)CNC(=O)[C@H](CC(C)C)NC(=O)[C@@H](N)C(C)C)[C@@H](C)CC)C(C)C)C(=O)NCC(=O)N[C@H](C(=O)N[C@@H](CC(C)C)C(=O)N[C@@H](CO)C(=O)N[C@@H](CO)C(=O)N[C@@H](CC(C)C)C(=O)N[C@@H](C)C(=O)N[C@@H](C)C(=O)N[C@@H](CCCNC(=N)N)C(=O)N[C@@H](Cc1ccc(O)cc1)C(=O)N[C@@H](CCCCN)C(=O)O)C(C)C` [Pln 1] (H-VLGSLIGSVGIGVLSSLAARYK-OH), the MIC50 (in general, an inhibitory concentration at the 50% level, which refers to growth in some studies and to a panel of isolates in others) in the data set on Salmonella Typhimurium is 5480 µg/mL (≈ 2540 µM). As to `CC(C)C[C@H](NC(=O)[C@H](CCCNC(=N)N)NC(=O)[C@H](CC(N)=O)NC(=O)[C@H](CCCNC(=N)N)NC(=O)[C@H](CC(C)C)NC(=O)[C@H](Cc1ccccc1)NC(=O)[C@H](CCCNC(=N)N)NC(=O)[C@H](CCCCN)NC(=O)[C@H](CCCCN)NC(=O)[C@H](C)NC(=O)[C@@H](N)CCCCN)C(=O)N[C@@H](CO)C(=O)N[C@@H](CCC(N)=O)C(=O)N[C@@H](CCC(N)=O)C(=O)N[C@@H](C)C(=O)N[C@@H](CCCNC(=N)N)C(=O)N[C@@H](CCCCN)C(=O)N[C@@H](C)C(=O)N[C@@H](CCCNC(=N)N)C(=O)N[C@H](C(=O)N[C@@H](CCCCN)C(=O)O)[C@@H](C)O` [Pln 5] (H-KAKKRFLRNRLSQQARKARTK-OH), in data set [1], the “cytotoxicity on the human host cells” value is given as “exhibited a cytotoxicity on the human host cells”. In the data set on Salmonella Typhimurium, this compound had an MIC50 of 4450 µg/mL (≈ 1720 µM). In the data set on Salmonella Typhimurium, `CC[C@H](C)[C@H](N)C(=O)N[C@@H](Cc1ccc(O)cc1)C(=O)N1CCC[C@H]1C(=O)N[C@@H](CCC(=O)O)C(=O)N[C@@H](CCCCN)C(=O)N[C@@H](CCC(N)=O)C(=O)N1CCC[C@H]1C(=O)N[C@@H](CCC(=O)O)C(=O)N[C@@H](CCC(=O)O)C(=O)N1CCC[C@H]1C(=O)N[C@H](C(=O)N[C@@H](CCCNC(=N)N)C(=O)N[C@@H](CCCNC(=N)N)C(=O)O)C(C)C` [Pln 2] (H-IYPEKQPEEPVRR-OH) had an MIC50 of 4840 µg/mL (≈ 2950 µM). The same measure, in the same setting: next, `CC[C@H](C)[C@H](NC(=O)CNC(=O)[C@@H](NC(=O)[C@H](C)NC(=O)[C@H](CCSC)NC(=O)[C@H](C)NC(=O)[C@H](CCCCN)NC(=O)[C@H](Cc1ccccc1)NC(=O)[C@@H]1CCCN1C(=O)[C@H](CCC(=O)O)NC(=O)[C@H](CCCNC(=N)N)NC(=O)[C@@H](NC(=O)[C@@H](NC(=O)[C@@H]1CCCN1)[C@@H](C)CC)C(C)C)C(C)C)C(=O)N[C@H](C(=O)N[C@@H](CC(C)C)C(=O)N[C@@H](C)C(=O)N[C@H](C(=O)N[C@@H](CCSC)C(=O)N[C@@H](CO)C(=O)NCC(=O)N[C@@H](CC(C)C)C(=O)N[C@@H](CC(C)C)C(=O)N[C@H](C(=O)N[C@H](C(=O)O)[C@@H](C)O)C(C)C)C(C)C)[C@@H](C)CC` [Pln 4] (H-PIVREPFKAMAVGIILAVMSGLLVT-OH): 5650 µg/mL (≈ 2150 µM). With `CSCC[C@H](NC(=O)CNC(=O)[C@@H](NC(=O)[C@@H]1CCCN1C(=O)[C@H](CCSC)NC(=O)CNC(=O)[C@H](CC(N)=O)NC(=O)[C@H](CC(N)=O)NC(=O)[C@H](Cc1ccc(O)cc1)NC(=O)[C@@H](NC(=O)[C@H](CCC(N)=O)NC(=O)[C@H](CS)NC(=O)[C@H](CCCNC(=N)N)NC(=O)[C@H](CCCNC(=N)N)NC(=O)[C@H](CO)NC(=O)[C@H](CCCCN)NC(=O)[C@@H](N)CCCCN)C(C)C)[C@@H](C)O)C(=O)N[C@@H](Cc1ccc(O)cc1)C(=O)N[C@H](C(=O)N[C@@H](CO)C(=O)N[C@@H](CS)C(=O)O)[C@@H](C)O` [Pln 3] (H-KKSRRCQVYNNGMPTGMYTSC-OH), in data set [1], the “cytotoxicity on the human host cells” value is on record as “exhibited a cytotoxicity on the human host cells”. In addition, in the data set on Salmonella Typhimurium, the MIC50 was found to be 5170 µg/mL (≈ 2130 µM).
